The test concerns M. tuberculosis Spec 210. In words: microbe, parasite or virus in culture. In kind it is cell-based, Mycobacterium tuberculosis. As to conditions: for MIC: Mycobacterium tuberculosis, SPEC210, read-out: MIC M. tuberculosis Spec 210 (multidrug-resistant), MABA; for MIC M. tuberculosis Spec 210 (multidrug-resistant): MABA.

Values after ≈ are worked out from the molar mass of the structure shown.

`O=C(O)c1cn(C2CC2)c2cc(N3CCN(C(=O)CCCCCBr)CC3)c(F)cc2c1=O` [Compound 12, 7-[4-(6-Bromohexanoyl)-piperazin-1-yl]-1-cyclopropyl-6-fluoro-4-oxo-1,4-dihydro-quinoline-3-carboxylic Acid]: the MIC is at most 0.25 µg/mL. With `NNC(=O)c1ccncc1` [isoniazid (INH), isoniazid, reference compound], the MIC worked out at 16 µg/mL (≈ 117 µM). As for `O=C(O)c1cn(C2CC2)c2cc(N3CCN(CCCCC(=O)N4CCN(c5cc6c(cc5F)c(=O)c(C(=O)O)cn6C5CC5)CC4)CC3)c(F)cc2c1=O` [Compound 19, CP–Pentanoyl–CP Dimer], the “MIC M. tuberculosis Spec 210 (multidrug-resistant)” value stood at 1 µg/mL (≈ 1.34 µM) and the MIC was in the range of 1 to 2 µg/mL (≈ 1.34 to 2.69 µM). In the case of `CO[C@H]1/C=C/O[C@@]2(C)Oc3c(C)c(O)c4c(O)c(c(/C=N/N5CCN(C)CC5)c(O)c4c3C2=O)NC(=O)/C(C)=C\C=C\[C@H](C)[C@H](O)[C@@H](C)[C@@H](O)[C@@H](C)[C@H](OC(C)=O)[C@@H]1C` [rifampicin (RMP), rifampicin, reference compound], the MIC turned out to be 32 µg/mL (≈ 38.9 µM). On the same count and under the same terms, under `O=C(O)c1cn(C2CC2)c2cc(N3CCN(CCCC(=O)N4CCN(c5cc6c(cc5F)c(=O)c(C(=O)O)cn6C5CC5)CC4)CC3)c(F)cc2c1=O` [Compound 18, CP–Butyryl–CP Dimer] stands 4 µg/mL (≈ 5.47 µM). As for `O=C(O)c1cn(C2CC2)c2cc(N3CCN(C(=O)CCl)CC3)c(F)cc2c1=O` [Compound 3, 7-[4-(2-Chloroacetyl)-piperazin-1-yl]-1-cyclopropyl-6-fluoro-4-oxo-1,4-dihydro-quinoline-3-carboxylic Acid], the “MIC M. tuberculosis Spec 210 (multidrug-resistant)” value came out at 2 µg/mL (≈ 4.9 µM) and the MIC lay in the range of 1 to 2 µg/mL (≈ 2.45 to 4.9 µM). Turning to `O=C(O)c1cn(C2CC2)c2cc(N3CCN(C(=O)CCCBr)CC3)c(F)cc2c1=O` [Compound 10, 7-[4-(4-Bromobutyryl)-piperazin-1-yl]-1-cyclopropyl-6-fluoro-4-oxo-1,4-dihydro-quinoline-3-carboxylic Acid], the MIC is at most 0.25 µg/mL.

As to `O=C(O)c1cn(C2CC2)c2cc(N3CCN(C(=O)CCCCl)CC3)c(F)cc2c1=O` [Compound 5, 7-[4-(4-Chlorobutyryl)-piperazin-1-yl]-1-cyclopropyl-6-fluoro-4-oxo-1,4-dihydro-quinoline-3-carboxylic Acid], the MIC is at most 0.25 µg/mL. Take `O=C(O)c1cn(C2CC2)c2cc(N3CCN(C(=O)CC(F)(F)F)CC3)c(F)cc2c1=O` [Compound 14, 7-[4-(3,3,3-Trifluoropropionyl)-piperazin-1-yl]-1-cyclopropyl-6-fluoro-4-oxo-1,4-dihydro-quinoline-3-carboxylic Acid]: the MIC turned out to be 32 µg/mL (≈ 72.5 µM). The same measure, in the same setting: under `O=C(O)c1cn(C2CC2)c2cc(N3CCN(C(=O)CBr)CC3)c(F)cc2c1=O` [Compound 8, 7-[4-(2-Bromoacetyl)-piperazin-1-yl]-1-cyclopropyl-6-fluoro-4-oxo-1,4-dihydro-quinoline-3-carboxylic Acid] stands 8 µg/mL (≈ 17.7 µM). Consider `O=C(O)c1cn(C2CC2)c2cc(N3CCN(C(=O)CCCCCl)CC3)c(F)cc2c1=O` [Compound 6, 7-[4-(5-Chloropentanoyl)-piperazin-1-yl]-1-cyclopropyl-6-fluoro-4-oxo-1,4-dihydro-quinoline-3-carboxylic Acid], for which the MIC was at most 0.25 µg/mL. Take `O=C(O)c1cn(C2CC2)c2cc(N3CCN(C(=O)CCCC(F)(F)F)CC3)c(F)cc2c1=O` [Compound 16, 7-[4-(5,5,5-Trifluoropentanoyl)-piperazin-1-yl]-1-cyclopropyl-6-fluoro-4-oxo-1,4-dihydro-quinoline-3-carboxylic Acid]: the MIC was 32 µg/mL (≈ 68.2 µM). Same read-out and setting: under `O=C(O)c1cn(C2CC2)c2cc(N3CCN(C(=O)CCC(F)(F)F)CC3)c(F)cc2c1=O` [Compound 15, 7-[4-(4,4,4-Trifluorobutyryl)-piperazin-1-yl]-1-cyclopropyl-6-fluoro-4-oxo-1,4-dihydro-quinoline-3-carboxylic Acid] stands 32 µg/mL (≈ 70.3 µM); under `[H]/N=C(/N)N[C@H]1[C@H](O)[C@@H](O)[C@H](O[C@@H]2O[C@@H](C)[C@](O)(C=O)[C@H]2O[C@@H]2O[C@@H](CO)[C@H](O)[C@@H](O)[C@@H]2NC)[C@@H](N/C(N)=N\[H])[C@@H]1O` [streptomycin (SM), streptomycin, reference compound], 16 µg/mL (≈ 27.5 µM). For `O=C(O)c1cn(C2CC2)c2cc(N3CCN(C(=O)C4CC4)CC3)c(F)cc2c1=O` [Compound 2, 7-(4-Cyclopropanecarbonyl-piperazin-1-yl)-1-cyclopropyl-6-fluoro-4-oxo-1,4-dihydro-quinoline-3-carboxylic Acid], the MIC is at most 0.25 µg/mL. For `O=C(O)c1cn(C2CC2)c2cc(N3CCN(CCCCCCCCCCC(=O)N4CCN(c5cc6c(cc5F)c(=O)c(C(=O)O)cn6C5CC5)CC4)CC3)c(F)cc2c1=O` [Compound 21, CP–Undecanoyl–CP Dimer], the “MIC M. tuberculosis Spec 210 (multidrug-resistant)” value was 1 µg/mL (≈ 1.21 µM) and the MIC lay within 1 to 2 µg/mL (≈ 1.21 to 2.41 µM).

Turning to `O=C(O)c1cn(C2CC2)c2cc(N3CCN(C(=O)CCCCBr)CC3)c(F)cc2c1=O` [Compound 11, 7-[4-(5-Bromopentanoyl)-piperazin-1-yl]-1-cyclopropyl-6-fluoro-4-oxo-1,4-dihydro-quinoline-3-carboxylic Acid], the MIC was at most 0.25 µg/mL.

`O=C(O)c1cn(C2CC2)c2cc(N3CCN(CCCCCC(=O)N4CCN(c5cc6c(cc5F)c(=O)c(C(=O)O)cn6C5CC5)CC4)CC3)c(F)cc2c1=O` [Compound 20, CP–Hexanoyl–CP Dimer]: the MIC was 16 µg/mL (≈ 21.1 µM). `O=C(O)c1cn(C2CC2)c2cc(N3CCN(C(=O)CCCCCCCCCCBr)CC3)c(F)cc2c1=O` [Compound 13, 7-[4-(11-Bromoundekanoyl)-piperazin-1-yl]-1-cyclopropyl-6-fluoro-4-oxo-1,4-dihydro-quinoline-3-carboxylic Acid]: the “MIC M. tuberculosis Spec 210 (multidrug-resistant)” value came to 1 µg/mL (≈ 1.73 µM) and the MIC was 1 to 2 µg/mL (≈ 1.73 to 3.46 µM).

Take `CC[C@@H](CO)NCCN[C@@H](CC)CO` [ethambutol(EMB), ethambutol, reference compound]: the MIC stood at 32 µg/mL (≈ 157 µM).

Consider `O=C(O)c1cn(C2CC2)c2cc(N3CCN(C(=O)CCCl)CC3)c(F)cc2c1=O` [Compound 4, 7-[4-(3-Chloropropionyl)-piperazin-1-yl]-1-cyclopropyl-6-fluoro-4-oxo-1,4-dihydro-quinoline-3-carboxylic Acid], for which the “MIC M. tuberculosis Spec 210 (multidrug-resistant)” value stood at 2 µg/mL (≈ 4.74 µM) and the MIC is 1 to 2 µg/mL (≈ 2.37 to 4.74 µM). In the case of `O=C(O)c1cn(C2CC2)c2cc(N3CCN(C(=O)CCCCCCl)CC3)c(F)cc2c1=O` [Compound 7, 7-[4-(6-Chlorohexanoyl)-piperazin-1-yl]-1-cyclopropyl-6-fluoro-4-oxo-1,4-dihydro-quinoline-3-carboxylic Acid], the MIC was at most 0.25 µg/mL.

Turning to `C=CC(=O)N1CCN(c2cc3c(cc2F)c(=O)c(C(=O)O)cn3C2CC2)CC1` [Compound 1, 7-(4-Acryloyl-piperazin-1-yl)-1-cyclopropyl-6-fluoro-4-oxo-1,4-dihydro-quinoline-3-carboxylic Acid], the “MIC M. tuberculosis Spec 210 (multidrug-resistant)” value stood at 2 µg/mL (≈ 5.19 µM) and the MIC lay in the range of 1 to 2 µg/mL (≈ 2.59 to 5.19 µM). For the compound `O=C(O)c1cn(C2CC2)c2cc(N3CCN(C(=O)CCBr)CC3)c(F)cc2c1=O` [Compound 9, 7-[4-(3-Bromopropionyl)-piperazin-1-yl]-1-cyclopropyl-6-fluoro-4-oxo-1,4-dihydro-quinoline-3-carboxylic Acid], the “MIC M. tuberculosis Spec 210 (multidrug-resistant)” value stood at 1 µg/mL (≈ 2.14 µM) and the MIC lay in the range of 1 to 2 µg/mL (≈ 2.14 to 4.29 µM). Regarding `O=C(O)c1cn(C2CC2)c2cc(N3CCN(CC(=O)N4CCN(c5cc6c(cc5F)c(=O)c(C(=O)O)cn6C5CC5)CC4)CC3)c(F)cc2c1=O` [Compound 17, CP–Acetyl–CP Dimer], the MIC was determined as 16 µg/mL (≈ 22.8 µM).

Source of the values: article PMC10233829 (ACS Omega, 2023).
